Results published in patent US20260167656A1, “PHOSPHORAMIDATE COMPOUNDS AND USES THEREOF” (ALLORION THERAPEUTICS INC, priority 2022, published 2026).

Experiments:
[1] = system: non-small cell lung cancer cell line H460; assay: H460 proliferation assay in the presence of 3 uM ASP9521 (AKR1C3 specific inhibitor); type: cell-based, human; conditions: H460 cells, CellTiter-Glo, 72 hours, in the presence of 3 uM ASP9521 added 4 hours prior to compounds; read-out: CTG H460: Avg IC50 (nM) [Assay Condition: ASP9521]
Protocol: (§1) Specifically, exponentially growing cells were seeded at density of 3×10^3 cells per well in 96-well plate and incubated at 37° C. in 5% CO2, 95% air and 100% relative humidity for 24 hours before adding compounds. Compounds were solubilized in 100% DMSO at 10 mM. Compounds were added to the plate using Tecan D300e® digital Dispenser. After drug addition, the plates were incubated for an additional 72 hours at 37° C. in 5% CO2, 95% air and 100% relative humidity. At the end of the incubation, cell viability was quantified with CellTiter-Glo® assay.
To further confirm that compounds were activated by human AKR1C3, H460 proliferation assay were also performed in the presence of 3 uM […], an AKR1C3 specific inhibitor. ASP9521 were added to the plates 4 hours prior to the addition of compounds.

[2] = system: non-small cell lung cancer cell line H460; assay: In vitro human cancer cell line cytotoxicity (proliferation) assay in H460, CellTiter-Glo, 72 hours; type: cell-based; conditions: H460 cells, DMSO condition (no AKR1C3 inhibitor), read-out: CTG H460: Avg IC50 (nM) [Assay Condition: DMSO]
Protocol: Biological Example 1. In Vitro Human Cancer Cell Line Cytotoxicity Assay
IC50 values in nanomolar reported here were derived from in vitro proliferation assay data in non-small cell lung cancer cell line H460.
as §1

CN(C(=O)c1cccc(Oc2c([N+](=O)[O-])ccc3c2CCC3OP(=O)(N2CC2)N2CC2)c1)c1cnn(C)c1 (racemic) [Example 251]
IC50 [1]: 1090 nM
IC50 [2]: < 10 nM

CN(C)C(=O)c1cc(Oc2c([N+](=O)[O-])ccc3c2CCC3OP(=O)(N2CC2)N2CC2)ccn1 (racemic) [Example 253]
IC50 [1]: 697 nM
IC50 [2]: < 10 nM

O=C(c1cc(Oc2c([N+](=O)[O-])ccc3c2CCC3OP(=O)(N2CC2)N2CC2)ccc1F)N1CCC1 (racemic) [Example 256]
IC50 [1]: 1240 nM
IC50 [2]: < 10 nM

O=[N+]([O-])c1ccc2c(c1Oc1ccc(-c3ccc(F)cn3)cc1)CCC2OP(=O)(N1CC1)N1CC1 (racemic) [Example 276]
IC50 [1]: 1340 nM
IC50 [2]: < 10 nM

Cc1cccc(-c2ccc(Oc3c([N+](=O)[O-])ccc4c3CCC4OP(=O)(N3CC3)N3CC3)cc2)n1 (racemic) [Example 277]
IC50 [1]: 1530 nM
IC50 [2]: < 10 nM

Cc1ccnc(-c2ccc(Oc3c([N+](=O)[O-])ccc4c3CCC4OP(=O)(N3CC3)N3CC3)cc2)n1 (racemic) [Example 280]
IC50 [1]: 1300 nM
IC50 [2]: < 10 nM

Cc1cncc(-c2ccc(Oc3c([N+](=O)[O-])ccc4c3CCC4OP(=O)(N3CC3)N3CC3)cc2)n1 (racemic) [Example 281]
IC50 [1]: 787 nM
IC50 [2]: < 10 nM

O=[N+]([O-])c1ccc2c(c1Oc1ccc(-c3ncccn3)cc1)CCC2OP(=O)(N1CC1)N1CC1 (racemic) [Example 282]
IC50 [1]: 1240 nM
IC50 [2]: < 10 nM

Cn1cc(-c2cccc(Oc3c([N+](=O)[O-])ccc4c3CCC4OP(=O)(N3CC3)N3CC3)c2)cn1 (racemic) [Example 299]
IC50 [1]: 744 nM
IC50 [2]: < 10 nM

O=[N+]([O-])c1ccc2c(c1Oc1ccnc(C3CC3)c1)CCC2OP(=O)(N1CC1)N1CC1 (racemic) [Example 312]
IC50 [1]: 312 nM
IC50 [2]: < 10 nM

O=[N+]([O-])c1ccc2c(c1Oc1cncc(C3CC3)c1)CCC2OP(=O)(N1CC1)N1CC1 (racemic) [Example 315]
IC50 [1]: 679 nM
IC50 [2]: < 10 nM

O=[N+]([O-])c1ccc2c(c1Oc1cccc(-c3ccc(F)cn3)c1)CCC2OP(=O)(N1CC1)N1CC1 (racemic) [Example 320]
IC50 [1]: 2230 nM
IC50 [2]: < 10 nM

CC(C)(C)c1cncc(Oc2c([N+](=O)[O-])ccc3c2CCC3OP(=O)(N2CC2)N2CC2)c1 (racemic) [Example 324]
IC50 [1]: 445 nM
IC50 [2]: < 10 nM

O=C1CCCCN1c1cccc(Oc2c([N+](=O)[O-])ccc3c2CCC3OP(=O)(N2CC2)N2CC2)c1 (racemic) [Example 404]
IC50 [1]: 1020 nM

O=C1COCCN1c1cccc(Oc2c([N+](=O)[O-])ccc3c2CCC3OP(=O)(N2CC2)N2CC2)c1 (racemic) [Example 405]
IC50 [1]: 871 nM

O=c1ccccn1-c1cccc(Oc2c([N+](=O)[O-])ccc3c2CCC3OP(=O)(N2CC2)N2CC2)c1 (racemic) [Example 406]
IC50 [1]: 1320 nM

CC1(C)CN(c2cccc(Oc3c([N+](=O)[O-])ccc4c3CCC4OP(=O)(N3CC3)N3CC3)c2)C(=O)O1 (racemic) [Example 416]
IC50 [1]: 275 nM
IC50 [2]: < 10 nM

O=[N+]([O-])c1ccc2c(c1Oc1ccc(F)c(-n3cc(F)cn3)c1)CCC2OP(=O)(N1CC1)N1CC1 (racemic) [Example 418]
IC50 [1]: 1210 nM
IC50 [2]: < 10 nM

O=[N+]([O-])c1ccc2c(c1Oc1ccc(-n3cc(F)cn3)cc1)CCC2OP(=O)(N1CC1)N1CC1 (racemic) [Example 419]
IC50 [1]: 1180 nM
IC50 [2]: < 10 nM

O=[N+]([O-])c1ccc2c(c1Oc1cccc(OC(F)(F)F)c1)CCC2OP(=O)(N1CC1)N1CC1 (racemic) [Example 447]
IC50 [1]: 547 nM
IC50 [2]: < 10 nM

CC(C)Oc1cccc(Oc2c([N+](=O)[O-])ccc3c2CCC3OP(=O)(N2CC2)N2CC2)c1 (racemic) [Example 451]
IC50 [1]: 1030 nM
IC50 [2]: < 10 nM

O=[N+]([O-])c1ccc2c(c1Oc1cccc(OC(F)F)c1)CCC2OP(=O)(N1CC1)N1CC1 (racemic) [Example 454]
IC50 [1]: 559 nM
IC50 [2]: < 10 nM

O=[N+]([O-])c1ccc2c(c1Oc1cccc(OC3CCC3)c1)CCC2OP(=O)(N1CC1)N1CC1 (racemic) [Example 459]
IC50 [1]: 845 nM
IC50 [2]: < 10 nM

O=[N+]([O-])c1ccc2c(c1Oc1cccc(OC3CCCC3)c1)CCC2OP(=O)(N1CC1)N1CC1 (racemic) [Example 460]
IC50 [1]: 1230 nM
IC50 [2]: < 10 nM

CSc1ccc(Oc2c([N+](=O)[O-])ccc3c2CCC3OP(=O)(N2CC2)N2CC2)cc1 (racemic) [Example 461]
IC50 [1]: 547 nM
IC50 [2]: < 10 nM

O=[N+]([O-])c1ccc2c(c1Oc1cccc(OC3COC3)c1)CCC2OP(=O)(N1CC1)N1CC1 (racemic) [Example 465]
IC50 [1]: 705 nM
IC50 [2]: < 10 nM

O=[N+]([O-])c1ccc2c(c1Oc1cccc(OCC(F)(F)F)c1)CCC2OP(=O)(N1CC1)N1CC1 (racemic) [Example 473]
IC50 [1]: 329 nM
IC50 [2]: < 10 nM

O=[N+]([O-])c1ccc2c(c1Oc1ccc(F)c(OC(F)F)c1)CCC2OP(=O)(N1CC1)N1CC1 (racemic) [Example 475]
IC50 [1]: 509 nM
IC50 [2]: < 10 nM

COc1ccn(Cc2cc(C(C)OP(=O)(N3CC3)N3CC3)ccc2[N+](=O)[O-])c(=O)c1 (single isomer, unassigned) [Example 2]
IC50 [1]: > 10000 nM
IC50 ([2]; Homo sapiens, NCI-H460, 72 h): ≥ 100 nM

COc1ccnc(OCc2cc(C(C)OP(=O)(N3CC3)N3CC3)ccc2[N+](=O)[O-])c1 (single isomer, unassigned) [Example 3]
IC50 [1]: > 3410 nM
IC50 ([2]; Homo sapiens, NCI-H460, 72 h): ≥ 100 nM

CN(C)C(=O)c1ccc(Oc2c([N+](=O)[O-])ccc3c2CCC3OP(=O)(N2CC2)N2CC2)cc1 (single isomer, unassigned) [Example 17]
IC50 [1]: 758 nM
IC50 ([2]; Homo sapiens, NCI-H460, 72 h): 10 to 50 nM

CN(C)C(=O)c1ccc(Oc2c([N+](=O)[O-])ccc3c2CCC3OP(=O)(N2CC2)N2CC2)cc1 (single isomer, unassigned) [Example 18]
IC50 [1]: 501 nM
IC50 [2]: < 10 nM

O=[N+]([O-])c1ccc2c(c1Oc1ccc(-c3ccccc3)cc1)CCC2OP(=O)(N1CC1)N1CC1 (single isomer, unassigned) [Example 19]
IC50 [1]: 593 nM
IC50 ([2]; Homo sapiens, NCI-H460, 72 h): < 10 nM

O=[N+]([O-])c1ccc2c(c1Oc1ccc(-c3ccccc3)cc1)CCC2OP(=O)(N1CC1)N1CC1 (single isomer, unassigned) [Example 20]
IC50 [1]: 1190 nM
IC50 [2]: < 10 nM

O=[N+]([O-])c1ccc2c(c1Oc1ccc(-c3ccc(F)cc3)c(F)c1)CCC2OP(=O)(N1CC1)N1CC1 (single isomer, unassigned) [Example 27]
IC50 [1]: 1170 nM
IC50 ([2]; Homo sapiens, NCI-H460, 72 h): < 10 nM

O=[N+]([O-])c1ccc2c(c1Oc1ccc(-c3ccc(F)cc3)c(F)c1)CCC2OP(=O)(N1CC1)N1CC1 (single isomer, unassigned) [Example 28]
IC50 [1]: 870 nM
IC50 [2]: < 10 nM

O=[N+]([O-])c1ccc2c(c1Oc1cccc(-c3ccccc3)c1)CCC2OP(=O)(N1CC1)N1CC1 (single isomer, unassigned) [Example 30]
IC50 [1]: 1510 nM
IC50 ([2]; Homo sapiens, NCI-H460, 72 h): < 10 nM

O=[N+]([O-])c1ccc2c(c1Oc1cccc(-c3ccccc3)c1)CCC2OP(=O)(N1CC1)N1CC1 (single isomer, unassigned) [Example 31]
IC50 [1]: 1550 nM
IC50 [2]: < 10 nM

Cn1cc(-c2ccc(Oc3cc4c(cc3[N+](=O)[O-])CCC4OP(=O)(N3CC3)N3CC3)cc2)cn1 (single isomer, unassigned) [Example 521]
IC50 [1]: 1950 nM

O=C(c1cccc(Oc2c([N+](=O)[O-])ccc3c2CCC3OP(=O)(N2CC2)N2CC2)c1)N1CC(F)(F)C1 (stereo not shown) [Example 235]
IC50 [1]: 717 nM

O=C(c1cccc(Oc2c([N+](=O)[O-])ccc3c2CCC3OP(=O)(N2CC2)N2CC2)c1)N1CCC(F)(F)C1 (stereo not shown) [Example 239]
IC50 [1]: 1060 nM

O=C(c1cccc(Oc2c([N+](=O)[O-])ccc3c2CCC3OP(=O)(N2CC2)N2CC2)c1)N1CCCC1 (stereo not shown) [Example 240]
IC50 [1]: 1150 nM

O=C(c1cccc(Oc2c([N+](=O)[O-])ccc3c2CCC3OP(=O)(N2CC2)N2CC2)c1)N1CCC(F)(F)C1 (stereo not shown) [Example 242]
IC50 [1]: 1270 nM

O=C(c1cccc(Oc2c([N+](=O)[O-])ccc3c2CCC3OP(=O)(N2CC2)N2CC2)c1)N1CCC(F)(F)CC1 (stereo not shown) [Example 244]
IC50 [1]: 834 nM

O=C(c1cccc(Oc2c([N+](=O)[O-])ccc3c2CCC3OP(=O)(N2CC2)N2CC2)c1)N1CCC1 (stereo not shown) [Example 246]
IC50 [1]: 522 nM

O=[N+]([O-])c1ccc2c(c1Oc1cccc(-c3ncccn3)c1)CCC2OP(=O)(N1CC1)N1CC1 (stereo not shown) [Example 301]
IC50 [1]: 3730 nM

Cc1noc(-c2cccc(Oc3c([N+](=O)[O-])ccc4c3CCC4OP(=O)(N3CC3)N3CC3)c2)n1 (stereo not shown) [Example 304]
IC50 [1]: 2130 nM

O=C1OCCN1c1cccc(Oc2c([N+](=O)[O-])ccc3c2CCC3OP(=O)(N2CC2)N2CC2)c1 (stereo not shown) [Example 407]
IC50 [1]: 380 nM

O=C1COCCN1c1cccc(Oc2c([N+](=O)[O-])ccc3c2CCC3OP(=O)(N2CC2)N2CC2)c1 (stereo not shown) [Example 411]
IC50 [2]: 10 to 50 nM

O=C1CCCN1c1cccc(Oc2c([N+](=O)[O-])ccc3c2CCC3OP(=O)(N2CC2)N2CC2)c1 (stereo not shown) [Example 413]
IC50 [1]: 1180 nM
